Measured values reported in patent US8022066B2, “2-(2-hydroxyphenyl) benzothiadiazines useful for treating obesity and diabetes” (High Point Pharmaceuticals, LLC, priority 2006, dated 2011).

melting point: 270 to 271 °C (dec.)
Structure (SMILES): Cc1c(Br)cc(C(C)(C)C)c(O)c1C1=Nc2cc(Cl)ccc2S(=O)(=O)N1 [Example 1, 4-Bromo-6-tert-butyl-2-(6-chloro-1,1-dioxo-1,2-dihydro-1λ^6-benzo[1,2,4]thiadiazin-3-yl)-3-methylphenol]
